# Measurements reported in patent publication US8946201B2, “Methods for inhibiting TGF-β” (Saint Louis University, priority 2007, dated 2015).
# Test system: TβR-I and TβR-II
# Experiment: 125I-TGF-β1 affinity labeling, Mv1Lu cells
# Format: cell-based, mink
# Experimental: (A) Mv1Lu cells were treated with 50 μg/ml cholesterol at 37° C. After several time periods, as indicated, ^125I-TGF-β1-affinity labeling was performed at 0° C. ^125I-TGF-β1 affinity-labeled TGF-β receptors were analyzed by 7.5% SDS-PAGE and autoradiography (a) and quantified with a PhosphoImager. The bracket indicates the locations of ^125I-TGF-β1 affinity-labeled TβR-I and TβR-II. The ratio of ^125I-TGF-β1 binding to TβR-II and TβR-I is plotted against incubation time (b).
# (B, C, D, E) Cells were treated with increasing concentrations of cholesterol in the presence (C) and absence (B, D, E) of 0.2% β-CD, as indicated. After 1 hr at 37° C., ^125I-TGF-β1 affinity labeling of TβR-I and TβR-II in cells was performed at 0° C. ^125I-TGF-β1 affinity-labeled TβR-I and TβR-II were analyzed by 7.5% SDS-PAGE and autoradiography or quantified with a PhosphoImager. A representative of a total of three analyses is shown (top). The bracket indicates the locations of ^125I-TGF-β affinity-labeled TβR-I and TβR-II. The relative intensities of ^125I-TGF-β1 affinity-labeled TβR-I and TβR-II in cells treated without cholesterol were taken as 100%. The quantitative data from three analyses is shown (bottom).
# The bracket indicates the locations of ^125I-TGF-β1 affinity-labeled TβR-I and TβR-II. The relative intensities of ^125I-TGF-β1-TβR-I and ^125I-TGF-β1-TβR-II complexes, which were quantified with a PhosphoImager, are plotted against TGF-β1 concentrations (bottom).
# (A, B, C, D, E, F) Cells were treated with LDL (50 μg protein/ml), VLDL (5 μg protein/ml), HDL (50 μg protein/ml), lipoprotein (a) (10 μg/ml), fluvastatin (F; 1 μM), lovastatin (L; 1 μM), nystatin (Nys; 25 μg/ml), β-CD (β-CD; 8 mM), cholest-4-en-3-one (3-one; 50 μg/ml) or cholesterol (Chol; 50 μg/ml) alone or combination of two. After 1 hr at 37° C. or 16 hr at 37° C. (for fluvastatin and lovastatin), ^125I-TGF-β1 affinity labeling of cell-surface TGF-β receptors was performed at 0° C. ^125I-TGF-β1 affinity-labeled TβR-I and TβR-II were analyzed by 7.5% SDS-PAGE and autoradiography. The relative intensities of TβR-I and TβR-II were quantified with a PhosphoImager. The ratio of ^125I-TGF-β1 binding to TβR-II and TβR-I were estimated. The numbers above the lane sequence denote the ratio of TβR-II/TβR-I.
# (G) Mv1Lu cells were treated with 50 μg/ml of cholesterol and cholesterol analogs/derivatives including 25-hydroxycholesterol, 7-dehydrocholesterol (7-DHC), 7-ketocholesterol, 7β, 8β-epoxycholesterol, 7β-hydroxycholesterol, and oxidized 7-dehydrocholesterol (oxy-7DHC). After 1 hr at 37° C., ^125I-TGF-β1 affinity labeling of TGF-β receptors was performed. ^125I-TGF-β1 affinity-labeled TβR-I and TβR-II were analyzed by 7.5% SDS-PAGE and autoradiography. The bracket indicates the locations of ^125I-TGF-β1-affinity-labeled TβR-I and TβR-II. The relative intensities of ^125I-TGF-β1 affinity-labeled TβR-I and TβR-II were determined by a PhosphoImager. The ratios of ^125I-TGF-β1 binding to TβR-II and TβR-I were estimated. The numbers above the lane sequence denote the ratio of TβR-II/TβR-I.
# After cross-linking, cell lysates were analyzed by 7.5% SDS-PAGE and autoradiography or quantified by a PhosphoImager. For all experiments, cholesterol or cholesterol derivatives were prepared as the stock solution with a concentration of 25 mg/ml in ethanol. The final concentration of ethanol in the medium was 0.2% (by vol.).
# [1] = 50 μg/ml, 60-min or 120-min incubation (FIG. 3A)
# [2] = 125 μg/ml in the presence of 0.2% β-CD
smiles,measurement,setting,value
CC(C)CCC[C@@H](C)[C@H]1CC[C@H]2[C@@H]3CC=C4C[C@@H](O)CC[C@]4(C)[C@H]3CC[C@]12C [cholesterol],effect on 125I-TGF-β1 binding to TβR-II,[1],did not affect
same,increase of 125I-TGF-β1 binding to TβR-I,[1],~1.5 fold
same,ratio of TβR-II/TβR-I,"50 μg/ml, 60 min or 120 min, 0.37 without cholesterol",0.18
same,effect on the affinities of TGF-β1 binding to both TβR-I and TβR-II,"50 μg/ml, 1 hr",does not alter
same,relative potency in increasing binding to TβR-I and decreasing the ratio,"50 μg/ml, 1 hr (FIG. 4G)",the most potent of these compounds
same,increase of 125I-TGF-β1 binding to TβR-I,"50 μg/ml, 1 hr, 125 pM 125I-TGF-β1 (FIG. 3F)",~2 fold
same,"125I-TGF-β1 binding to TβR-II, relative intensity","50 μg/ml, 1 hr, 125 pM 125I-TGF-β1, ~180 untreated",~120 ×10^3 A.U.
same,"125I-TGF-β1 binding to TβR-I, relative intensity","50 μg/ml, 1 hr, 125 pM 125I-TGF-β1, ~350 untreated",~700 ×10^3 A.U.
same,ratio of TGF-β1 binding to TβR-II and TβR-I,"50 μg/ml, 1 hr, 0.62 untreated (FIG. 4G)",0.29
same,increase of 125I-TGF-β1 binding to TβR-I,"50 μg/ml, 1 hr, Mv1Lu cells",~2.5 fold
same,ratio of TβR-II/TβR-I,"50 μg/ml, 1 hr, Mv1Lu cells, 0.42 untreated",0.20
same,effect on 125I-TGF-β1 binding to TβR-II,[2],little effect
same,increase of 125I-TGF-β1 binding to TβR-I,[2],~3 fold
same,effect of exogenous cholesterol on the statin effect on the ratio,"CHO-K1, Mv1Lu and BAEC cells (FIGS. 4D, E and F)",abolished
same,effect on binding of 125I-TGF-β1 to TβR-II,"increasing concentrations, 1 hr, Mv1Lu cells",did not significant alter
"CC[C@H](C)C(=O)O[C@H]1C[C@@H](C)C=C2C=C[C@H](C)[C@H](CC[C@@H]3C[C@@H](O)CC(=O)O3)[C@H]21 [lovastatin, reference compound]",ratio of TβR-II/TβR-I,"1 μM, 37° C. 16 hr, Mv1Lu cells, 0.88 untreated",1.18
"C[C@@H]1[C@H](O)[C@@H](C)/C=C/C=C/CC/C=C/C=C/C=C/C=C/C(O[C@H]2O[C@H](C)[C@@H](O)[C@H](N)[C@@H]2O)CC2O[C@](O)(CC(O)C(O)CCC(O)CC(O)CC(O)CC(=O)O[C@H]1C)CC(O)C2C(=O)O (some centres unmarked) [nystatin, reference compound]",effect on the LDL- or cholesterol-induced increase of 125I-TGF-β1 binding to TβR-I,"co-treatment, β-CD 8 mM, nystatin 25 μg/ml, cholest-4-en-3-one 50 μg/ml (FIG. 4B, C)",abolished
